Reference: patent US9617247B1, “Form of halosulfuron-methyl, a process for its preparation and use of the same” (priority 2015, dated 2017)

Key:
Format in all cases: physicochemical
[1] = Cleanout test (residual halosulfuron-methyl extracted from bottle with acetonitrile); conditions: lower rating = more effective cleanout
Procedure: The test was conducted by dispersing in water a sample to produce a concentration that is normally used when applying the herbicide: 25% halosulfuron-methyl. The sample was added to tap water (300 mL) in a 400 mL beaker and magnetically stirred for 2 minutes. The mixture was then stirred for 2 minutes, whereupon the resulting dispersion was dispensed in three 100 mL aliquots to 4-oz (118 mL) polyethylene bottles. The bottles were capped, inverted twice and allowed to stand overnight.
After standing overnight, each individual bottle was inverted twice and the liquid contents were then poured out. Tap water (10 mL) was added and the bottle was inverted until all sediment was re-suspended, whereupon the contents were poured out. Tap water (100 mL) was added and the bottle was inverted twice and then allowed to stand undisturbed for 10 minutes. The bottle was inverted twice more and the contents were poured out. Acetonitrile (10 mL) was added to the bottle to extract any remaining material. The acetonitrile solution was analyzed by reversed-phase liquid chromatography with UV detection. The cleanout rating (the concentration of halosulfuron-methyl herbicide in the acetonitrile solution) is reported in % in Table 6 below.

[2] = Determining water solubility (pH 7 buffer, HPLC of supernatant); conditions: for Concentration measured by HPLC after treatment: pH 7 buffer
Procedure: A stock pH 7 buffer solution was prepared by adding aqueous sodium hydroxide solution (0.1 M, 145 mL) to aqueous potassium dihydrogen phosphate solution (0.1 M, 250 mL), and then adding sufficient distilled water to adjust the final volume to 500 mL. At least 1 time and up to about 5 times the amount of halosulfuron-methyl needed for saturation was added to a mixing vessel containing stock buffer solution at the test temperature (e.g., 20° C.). The mixture was magnetically stirred in the dark while being maintained at the test temperature. Samples were periodically removed for analysis. The samples were centrifuged using a high speed, temperature-controlled centrifuge at the test temperature for about 20 minutes at ≧12000 G to remove suspended particles. An aliquot of each supernatant was taken for analysis.
The concentration of halosulfuron-methyl in the supernatant was determined by a high pressure liquid chromatography (HPLC) with a reversed phase chromatography column and UV detection. […] Samples were successively withdrawn from the mixing vessel and analyzed until three successive samples show little or no variation in concentration. The test is preferably replicated to ensure accuracy.

[3] = Viscosity (stated finding, no method given)
[4] = OD formulation, measured vs original concentration 40%
[5] = OD formulation, original concentration 40%
[6] = SG formulation, measured vs original concentration 25%
[7] = SG formulation, original concentration 25%
[8] = WG formulation, measured vs original concentration 25%
[9] = WG formulation, original concentration 25%

Compound | Cleanout rating (concentration of halosulfuron-methyl in the acetonitrile solution) ([1]; OD formulation) [%] | Cleanout rating (concentration of halosulfuron-methyl in the acetonitrile solution) ([1]; SG formulation) [%] | Cleanout rating (concentration of halosulfuron-methyl in the acetonitrile solution) ([1]; WG formulation) [%] | Solubility [2, 4] [%] | Concentration measured by HPLC after treatment [2, 5] [%] | Solubility [2, 6] [%] | Concentration measured by HPLC after treatment [2, 7] [%] | Solubility [2, 8] [%] | Concentration measured by HPLC after treatment [2, 9] [%] | solubility (in words) ([2]; compared with amorphous halosulfuron-methyl) | viscosity (in words) ([3]; listed as crystalline modification I of halosulfuron-methyl) | viscosity (in words) ([3]; listed as halosulfuron-methyl in amorphous state)
COC(=O)c1c(Cl)nn(C)c1S(=O)(=O)NC(=O)Nc1nc(OC)cc(OC)n1 [Halosulfuron-methyl, crystalline modification I] [methyl 3-chloro-5-(4,6-dimethoxypyrimidin-2-ylcarbamoylsulfamoyl)-1-methylpyrazole-4-carboxylate] | 5 | 0.1 | 2 | 88 | 35 | 99.6 | 24.9 | 92 | 23 | significant increase | decrease | –
COC(=O)c1c(Cl)nn(C)c1S(=O)(=O)NC(=O)Nc1nc(OC)cc(OC)n1 [Amorphous halosulfuron-methyl, methyl 3-chloro-5-(4,6-dimethoxypyrimidin-2-ylcarbamoylsulfamoyl)-1-methylpyrazole-4-carboxylate, reference compound] | 26 | 10 | 13 | 35 | 14 | 60 | 15 | 48 | 12 | – | – | highly viscous
